Assay results as given in patent US12371428B2 (Exelixis, Inc., priority 2019, dated 2025).

Columns and labels:
Assay type in all cases: cell-based
[1] = molecular target: Mer (phospho-Mer, MERTK-transfected 293A cells) (Homo sapiens (Human), UniProt Q12866); assay: Mer autophosphorylation ELISA in transient transfected 293A cells (Example H); details: cellular activity; Mer autophosphorylation ELISA in transient transfected 293A cells
In short: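 IC50 from 4-parameter logistic fit of phospho-Mer levels, quantified by ELISA against a phospho-Mer standard in lysates of MERTK-transfected 293A cells. Cells exposed 1 h to 8-point serial dilutions, serum-free, 0.3% DMSO; controls: DMSO (100%) and reference inhibitor (0%).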

[2] = molecular target: Met (phospho-Met, HGF-stimulated PC-3 prostate cancer cells) (Homo sapiens (Human), UniProt P08581); assay: Met autophosphorylation ELISA in PC-3 cells (Example F); details: cellular activity; Met autophosphorylation ELISA in PC-3 cells; read-out: c-Met IC50
In short: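 Serum-starved (3 h) PC-3 cells were treated 1 h with compounds (8-point curve, 0.3% DMSO), then stimulated with 100 ng/mL human HGF for 10 min. Lysate phospho-Met (panTyr) was measured by sandwich ELISA, normalised to DMSO and reference-inhibitor controls. IC50 came from 4-parameter logistic fit.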

[3] = molecular target: KDR (phospho-KDR, VEGF165-stimulated HUVEC cells) (Homo sapiens (Human), UniProt P35968); assay: KDR autophosphorylation ELISA in HUVEC cells (Example G); details: cellular activity; KDR autophosphorylation ELISA in HUVEC cells
In short: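 First, endothelial cells were cultured a day, then kept without serum for another day. Next came 1 h with serially diluted compound, a brief 5 min VEGF165 stimulus (100 ng/mL), rapid lysis, and ELISA detection of receptor phosphorylation relative to stimulated and non-stimulated controls.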

[4] = molecular target: AXL (phospho-AXL, Gas6-stimulated A-172 glioblastoma cells) (Homo sapiens (Human), UniProt P30530); assay: AXL autophosphorylation ELISA in A-172 cells (Example E); details: cellular activity; AXL autophosphorylation ELISA in A-172 cells; read-out: Axl IC50
In short: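 Phospho-AXL was measured by ELISA in lysates of Gas6-stimulated A-172 cells, starved 24 h in serum-free medium and exposed 1 h to an 8-point compound dilution at 0.3% DMSO.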

Mer (phospho-Mer, MERTK-transfected 293A cells), sequence (Q12866 21-999): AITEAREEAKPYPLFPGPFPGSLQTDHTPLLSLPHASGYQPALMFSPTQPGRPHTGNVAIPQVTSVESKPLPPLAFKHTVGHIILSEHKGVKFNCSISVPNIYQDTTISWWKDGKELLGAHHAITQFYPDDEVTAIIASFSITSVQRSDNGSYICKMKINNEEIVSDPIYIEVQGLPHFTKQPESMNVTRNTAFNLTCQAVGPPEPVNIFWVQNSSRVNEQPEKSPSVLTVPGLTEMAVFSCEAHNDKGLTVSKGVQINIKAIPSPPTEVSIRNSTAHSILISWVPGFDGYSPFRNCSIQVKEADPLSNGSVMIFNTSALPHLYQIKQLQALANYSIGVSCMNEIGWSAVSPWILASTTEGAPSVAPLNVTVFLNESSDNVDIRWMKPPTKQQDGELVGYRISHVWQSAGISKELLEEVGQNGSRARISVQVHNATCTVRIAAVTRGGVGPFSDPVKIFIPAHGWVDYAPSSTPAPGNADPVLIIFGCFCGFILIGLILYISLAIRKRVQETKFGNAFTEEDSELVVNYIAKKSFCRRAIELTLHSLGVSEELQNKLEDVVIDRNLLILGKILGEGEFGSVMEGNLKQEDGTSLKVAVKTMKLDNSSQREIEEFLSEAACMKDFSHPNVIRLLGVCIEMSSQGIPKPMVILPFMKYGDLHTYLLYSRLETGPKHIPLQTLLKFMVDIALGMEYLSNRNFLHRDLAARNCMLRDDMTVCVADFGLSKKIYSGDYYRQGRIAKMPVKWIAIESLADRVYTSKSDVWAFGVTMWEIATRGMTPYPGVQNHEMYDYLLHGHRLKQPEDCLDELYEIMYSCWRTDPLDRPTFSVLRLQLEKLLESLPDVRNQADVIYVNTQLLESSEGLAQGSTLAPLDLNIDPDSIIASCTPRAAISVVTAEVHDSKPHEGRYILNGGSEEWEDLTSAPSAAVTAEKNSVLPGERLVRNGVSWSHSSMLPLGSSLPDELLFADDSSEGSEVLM
KDR (phospho-KDR, VEGF165-stimulated HUVEC cells), sequence (P35968 20-1356): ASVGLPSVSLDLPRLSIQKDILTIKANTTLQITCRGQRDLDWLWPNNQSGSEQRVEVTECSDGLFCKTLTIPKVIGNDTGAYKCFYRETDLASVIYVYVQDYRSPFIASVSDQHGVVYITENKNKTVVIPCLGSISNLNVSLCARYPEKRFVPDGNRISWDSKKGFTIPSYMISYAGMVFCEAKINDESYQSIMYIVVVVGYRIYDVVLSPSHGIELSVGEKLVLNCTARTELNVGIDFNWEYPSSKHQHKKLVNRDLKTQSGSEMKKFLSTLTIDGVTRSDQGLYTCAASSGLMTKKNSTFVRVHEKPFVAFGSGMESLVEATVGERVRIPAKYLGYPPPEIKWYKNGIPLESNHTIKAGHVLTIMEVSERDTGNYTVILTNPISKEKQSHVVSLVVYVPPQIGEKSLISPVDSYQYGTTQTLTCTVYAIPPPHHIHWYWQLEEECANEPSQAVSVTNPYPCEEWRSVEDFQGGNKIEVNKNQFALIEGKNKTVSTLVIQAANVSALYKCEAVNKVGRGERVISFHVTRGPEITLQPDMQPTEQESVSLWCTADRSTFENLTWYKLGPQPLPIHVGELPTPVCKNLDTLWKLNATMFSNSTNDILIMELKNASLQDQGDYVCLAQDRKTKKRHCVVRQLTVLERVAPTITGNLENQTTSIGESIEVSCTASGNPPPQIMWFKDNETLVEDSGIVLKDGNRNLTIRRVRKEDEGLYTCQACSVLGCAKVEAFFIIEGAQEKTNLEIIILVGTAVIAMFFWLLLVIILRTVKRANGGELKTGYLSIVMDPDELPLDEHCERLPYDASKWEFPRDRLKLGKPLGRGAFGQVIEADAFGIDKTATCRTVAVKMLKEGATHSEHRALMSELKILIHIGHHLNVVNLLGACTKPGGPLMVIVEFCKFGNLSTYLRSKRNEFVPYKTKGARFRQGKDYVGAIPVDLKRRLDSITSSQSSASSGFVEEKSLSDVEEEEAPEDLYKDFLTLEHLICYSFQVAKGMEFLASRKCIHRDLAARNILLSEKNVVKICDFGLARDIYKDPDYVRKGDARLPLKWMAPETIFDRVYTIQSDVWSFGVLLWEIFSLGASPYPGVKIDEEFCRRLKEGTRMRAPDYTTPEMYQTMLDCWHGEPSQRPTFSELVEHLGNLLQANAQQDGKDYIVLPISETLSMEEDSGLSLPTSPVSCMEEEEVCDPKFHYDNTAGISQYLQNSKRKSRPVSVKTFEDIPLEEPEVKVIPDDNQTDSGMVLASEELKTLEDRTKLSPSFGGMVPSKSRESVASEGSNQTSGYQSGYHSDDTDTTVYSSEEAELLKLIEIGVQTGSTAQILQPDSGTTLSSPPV
Met (phospho-Met, HGF-stimulated PC-3 prostate cancer cells), sequence (P08581 25-1390): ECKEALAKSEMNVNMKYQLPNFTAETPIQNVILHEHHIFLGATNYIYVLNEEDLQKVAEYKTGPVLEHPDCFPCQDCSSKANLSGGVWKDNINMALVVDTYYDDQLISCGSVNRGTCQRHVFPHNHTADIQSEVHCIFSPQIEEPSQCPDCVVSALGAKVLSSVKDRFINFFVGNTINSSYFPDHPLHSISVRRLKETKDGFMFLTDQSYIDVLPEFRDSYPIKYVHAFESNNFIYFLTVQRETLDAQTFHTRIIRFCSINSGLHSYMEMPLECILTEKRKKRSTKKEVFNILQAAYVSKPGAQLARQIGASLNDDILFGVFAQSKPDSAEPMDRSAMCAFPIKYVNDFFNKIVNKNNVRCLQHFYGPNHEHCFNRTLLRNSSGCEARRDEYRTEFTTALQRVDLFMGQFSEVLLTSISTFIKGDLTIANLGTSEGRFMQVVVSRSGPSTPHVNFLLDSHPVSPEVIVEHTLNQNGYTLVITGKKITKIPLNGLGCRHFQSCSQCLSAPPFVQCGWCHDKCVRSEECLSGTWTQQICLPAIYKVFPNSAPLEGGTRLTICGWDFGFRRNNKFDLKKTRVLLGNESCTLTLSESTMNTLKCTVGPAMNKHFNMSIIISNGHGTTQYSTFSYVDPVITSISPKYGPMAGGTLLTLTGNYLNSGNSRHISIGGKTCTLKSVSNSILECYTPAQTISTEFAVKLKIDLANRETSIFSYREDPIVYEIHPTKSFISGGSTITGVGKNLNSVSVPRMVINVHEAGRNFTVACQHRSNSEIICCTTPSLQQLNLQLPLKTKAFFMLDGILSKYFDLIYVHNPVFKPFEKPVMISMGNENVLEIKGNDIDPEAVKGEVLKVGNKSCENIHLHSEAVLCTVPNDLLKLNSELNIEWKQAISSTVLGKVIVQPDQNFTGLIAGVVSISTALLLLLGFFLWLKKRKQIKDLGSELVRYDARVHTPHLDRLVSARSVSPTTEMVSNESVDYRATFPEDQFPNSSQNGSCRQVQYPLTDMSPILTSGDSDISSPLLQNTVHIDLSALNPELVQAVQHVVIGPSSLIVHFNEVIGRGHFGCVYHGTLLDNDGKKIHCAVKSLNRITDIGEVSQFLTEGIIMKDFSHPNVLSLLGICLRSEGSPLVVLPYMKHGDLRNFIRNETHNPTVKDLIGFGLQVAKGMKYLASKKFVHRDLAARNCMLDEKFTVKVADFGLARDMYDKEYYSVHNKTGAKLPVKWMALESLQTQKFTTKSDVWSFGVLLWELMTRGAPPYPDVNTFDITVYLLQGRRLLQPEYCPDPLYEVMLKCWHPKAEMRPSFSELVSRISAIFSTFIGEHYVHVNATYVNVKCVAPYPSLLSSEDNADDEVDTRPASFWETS
AXL (phospho-AXL, Gas6-stimulated A-172 glioblastoma cells), sequence (P30530 26-894): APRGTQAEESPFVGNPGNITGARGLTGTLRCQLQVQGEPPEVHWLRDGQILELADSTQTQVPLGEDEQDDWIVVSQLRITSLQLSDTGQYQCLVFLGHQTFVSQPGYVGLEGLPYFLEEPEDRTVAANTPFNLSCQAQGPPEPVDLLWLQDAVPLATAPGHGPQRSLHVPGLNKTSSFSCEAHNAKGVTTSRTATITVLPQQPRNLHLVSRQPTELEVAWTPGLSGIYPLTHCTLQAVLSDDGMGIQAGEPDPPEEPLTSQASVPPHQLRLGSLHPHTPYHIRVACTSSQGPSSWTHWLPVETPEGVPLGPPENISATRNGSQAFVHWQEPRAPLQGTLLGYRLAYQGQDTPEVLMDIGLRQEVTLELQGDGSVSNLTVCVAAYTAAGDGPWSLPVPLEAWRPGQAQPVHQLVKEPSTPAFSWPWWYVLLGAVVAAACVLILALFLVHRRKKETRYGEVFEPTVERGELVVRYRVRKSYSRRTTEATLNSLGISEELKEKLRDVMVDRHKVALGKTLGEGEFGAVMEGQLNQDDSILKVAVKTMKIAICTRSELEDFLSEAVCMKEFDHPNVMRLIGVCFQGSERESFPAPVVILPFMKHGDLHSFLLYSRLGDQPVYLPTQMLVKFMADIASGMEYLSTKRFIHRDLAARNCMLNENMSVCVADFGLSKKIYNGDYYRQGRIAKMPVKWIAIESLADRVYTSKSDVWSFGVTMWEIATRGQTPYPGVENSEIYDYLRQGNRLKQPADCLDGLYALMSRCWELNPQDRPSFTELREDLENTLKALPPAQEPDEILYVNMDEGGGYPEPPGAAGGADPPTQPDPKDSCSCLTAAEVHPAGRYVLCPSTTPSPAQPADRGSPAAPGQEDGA

IC50 [1]	IC50 [2]	IC50 [3]	IC50 [4]	Compound
< 100 nM	< 100 nM	< 100 nM	> 300 nM	COc1ccc(-c2c(C)ncc(C(=O)Nc3ccc(Oc4ccnc5cc(OC)cnc45)c(F)c3)c2O)c(F)c1 [Compound 700, N-[3-fluoro-4-[(7-methoxy-1,5-naphthyridin-4-yl)oxy]phenyl]-5-(2-fluoro-4-methoxyphenyl)-4-hydroxy-6-methylpyridine-3-carboxamide]
< 100 nM	< 100 nM	< 100 nM	< 100 nM	COc1cnc2c(Oc3ccc(NC(=O)c4cnc(C)c(-c5ccc(F)c(C)c5)c4O)cc3F)ccnc2c1 [Compound 701, N-[3-fluoro-4-[(7-methoxy-1,5-naphthyridin-4-yl)oxy]phenyl]-5-(4-fluoro-3-methylphenyl)-4-hydroxy-6-methylpyridine-3-carboxamide]
< 100 nM	< 100 nM	100 to 300 nM	< 100 nM	COc1cc2nccc(Oc3ccc(NC(=O)c4c(C)n(CC(F)F)cc(-c5ccc(F)cc5)c4=O)cc3F)c2nc1OC [Compound 702, 1-(2,2-difluoroethyl)-N-[4-[(6,7-dimethoxy-1,5-naphthyridin-4-yl)oxy]-3-fluorophenyl]-5-(4-fluorophenyl)-2-methyl-4-oxopyridine-3-carboxamide]
< 100 nM	< 100 nM	< 100 nM	< 100 nM	COCCOc1cc2nccc(Oc3ccc(NC(=O)c4c(C)ccn(-c5ccc(F)cc5)c4=O)cc3F)c2nc1OC [Compound 703, N-[3-fluoro-4-[[6-methoxy-7-(2-methoxyethoxy)-1,5-naphthyridin-4-yl]oxy]phenyl]-1-(4-fluorophenyl)-4-methyl-2-oxopyridine-3-carboxamide]
< 100 nM	< 100 nM	< 100 nM	< 100 nM	COCCOc1cc2nccc(Oc3ccc(NC(=O)c4c(C)ccn(-c5ccc(F)cc5)c4=O)cc3)c2nc1OC [Compound 704, 1-(4-fluorophenyl)-N-[4-[[6-methoxy-7-(2-methoxyethoxy)-1,5-naphthyridin-4-yl]oxy]phenyl]-4-methyl-2-oxopyridine-3-carboxamide]
< 100 nM	< 100 nM	100 to 300 nM	< 100 nM	COc1cc2nccc(Oc3ccc(NC(=O)c4nn(C(F)F)c(C)c(-c5ccc(F)cc5)c4=O)cc3F)c2nc1OC [Compound 721, 1-(difluoromethyl)-N-[4-[(6,7-dimethoxy-1,5-naphthyridin-4-yl)oxy]-3-fluorophenyl]-5-(4-fluorophenyl)-6-methyl-4-oxopyridazine-3-carboxamide]

Second part, the molecule before the results:

Compound	IC50 [1]	IC50 [2]	IC50 [3]	IC50 [4]
COc1cnc2c(Oc3ccc(NC(=O)c4c(C)nc(C)c(-c5ccc(F)cc5OC)c4O)cc3F)ccnc2c1 [Compound 686, N-[3-fluoro-4-[(7-methoxy-1,5-naphthyridin-4-yl)oxy]phenyl]-5-(4-fluoro-2-methoxyphenyl)-4-hydroxy-2,6-dimethylpyridine-3-carboxamide]	< 100 nM	< 100 nM	< 100 nM	< 100 nM
COc1cnc2c(Oc3ccc(NC(=O)c4c(C)nc(C)c(-c5ccc(F)c(F)c5)c4O)cc3F)ccnc2c1 [Compound 687, 5-(3,4-difluorophenyl)-N-[3-fluoro-4-[(7-methoxy-1,5-naphthyridin-4-yl)oxy]phenyl]-4-hydroxy-2,6-dimethylpyridine-3-carboxamide]	< 100 nM	< 100 nM	< 100 nM	< 100 nM
COc1cnc2c(Oc3ccc(NC(=O)c4c(C)nc(C)c(-c5ccc(F)c(OC)c5)c4O)cc3F)ccnc2c1 [Compound 688, N-[3-fluoro-4-[(7-methoxy-1,5-naphthyridin-4-yl)oxy]phenyl]-5-(4-fluoro-3-methoxyphenyl)-4-hydroxy-2,6-dimethylpyridine-3-carboxamide]	< 100 nM	< 100 nM	< 100 nM	< 100 nM
COc1cnc2c(Oc3ccc(NC(=O)c4c(C)nc(C)c(-c5ccc(F)c(C)c5)c4O)cc3F)ccnc2c1 [Compound 689, N-[3-fluoro-4-[(7-methoxy-1,5-naphthyridin-4-yl)oxy]phenyl]-5-(4-fluoro-3-methylphenyl)-4-hydroxy-2,6-dimethylpyridine-3-carboxamide]	< 100 nM	< 100 nM	< 100 nM	< 100 nM
COc1cnc2c(Oc3ccc(NC(=O)c4c(C)nc(C)c(-c5ccc(C(C)C)cc5)c4O)cc3F)ccnc2c1 [Compound 690, N-[3-fluoro-4-[(7-methoxy-1,5-naphthyridin-4-yl)oxy]phenyl]-4-hydroxy-2,6-dimethyl-5-(4-propan-2-ylphenyl)pyridine-3-carboxamide]	100 to 300 nM	> 300 nM	> 300 nM	> 300 nM
COc1ccc(-c2c(C)nc(C)c(C(=O)Nc3ccc(Oc4ccnc5cc(OC)cnc45)c(F)c3)c2O)c(F)c1 [Compound 691, N-[3-fluoro-4-[(7-methoxy-1,5-naphthyridin-4-yl)oxy]phenyl]-5-(2-fluoro-4-methoxyphenyl)-4-hydroxy-2,6-dimethylpyridine-3-carboxamide]	< 100 nM	< 100 nM	< 100 nM	100 to 300 nM
COc1cnc2c(Oc3ccc(NC(=O)c4c(C)nc(C)c(-c5ccc(OC)c(C)c5)c4O)cc3F)ccnc2c1 [Compound 692, N-[3-fluoro-4-[(7-methoxy-1,5-naphthyridin-4-yl)oxy]phenyl]-4-hydroxy-5-(4-methoxy-3-methylphenyl)-2,6-dimethylpyridine-3-carboxamide]	< 100 nM	< 100 nM	< 100 nM	100 to 300 nM
COc1cnc2c(Oc3ccc(NC(=O)c4c(C)nc(C)c(-c5ccc(OC)c(F)c5)c4O)cc3F)ccnc2c1 [Compound 693, N-[3-fluoro-4-[(7-methoxy-1,5-naphthyridin-4-yl)oxy]phenyl]-5-(3-fluoro-4-methoxyphenyl)-4-hydroxy-2,6-dimethylpyridine-3-carboxamide]	< 100 nM	100 to 300 nM	< 100 nM	> 300 nM
COc1cnc2c(Oc3ccc(NC(=O)c4c(C)nc(C)c(-c5ccc(S(C)(=O)=O)cc5)c4O)cc3F)ccnc2c1 [Compound 694, N-[3-fluoro-4-[(7-methoxy-1,5-naphthyridin-4-yl)oxy]phenyl]-4-hydroxy-2,6-dimethyl-5-(4-methylsulfonylphenyl)pyridine-3-carboxamide]	< 100 nM	100 to 300 nM	> 300 nM	> 300 nM
COc1ccc(-c2c(C)nc(C)c(C(=O)Nc3ccc(Oc4ccnc5cc(OC)cnc45)c(F)c3)c2O)c(OC)c1 [Compound 695, 5-(2,4-dimethoxyphenyl)-N-[3-fluoro-4-[(7-methoxy-1,5-naphthyridin-4-yl)oxy]phenyl]-4-hydroxy-2,6-dimethylpyridine-3-carboxamide]	< 100 nM	< 100 nM	< 100 nM	> 300 nM
COc1ccc(-c2c(C)ncc(C(=O)Nc3ccc(Oc4ccnc5cc(OC)cnc45)c(F)c3)c2O)c(OC)c1 [Compound 696, 5-(2,4-dimethoxyphenyl)-N-[3-fluoro-4-[(7-methoxy-1,5-naphthyridin-4-yl)oxy]phenyl]-4-hydroxy-6-methylpyridine-3-carboxamide]	< 100 nM	100 to 300 nM	< 100 nM	> 300 nM
COc1cnc2c(Oc3ccc(NC(=O)c4cnc(C)c(-c5ccc(S(C)(=O)=O)cc5)c4O)cc3F)ccnc2c1 [Compound 697, N-[3-fluoro-4-[(7-methoxy-1,5-naphthyridin-4-yl)oxy]phenyl]-4-hydroxy-6-methyl-5-(4-methylsulfonylphenyl)pyridine-3-carboxamide]	< 100 nM	100 to 300 nM	> 300 nM	> 300 nM
COc1cnc2c(Oc3ccc(NC(=O)c4cnc(C)c(-c5ccc(OC)c(F)c5)c4O)cc3F)ccnc2c1 [Compound 698, N-[3-fluoro-4-[(7-methoxy-1,5-naphthyridin-4-yl)oxy]phenyl]-5-(3-fluoro-4-methoxyphenyl)-4-hydroxy-6-methylpyridine-3-carboxamide]	< 100 nM	> 300 nM	< 100 nM	> 300 nM
COc1cnc2c(Oc3ccc(NC(=O)c4cnc(C)c(-c5ccc(OC)c(C)c5)c4O)cc3F)ccnc2c1 [Compound 699, N-[3-fluoro-4-[(7-methoxy-1,5-naphthyridin-4-yl)oxy]phenyl]-4-hydroxy-5-(4-methoxy-3-methylphenyl)-6-methylpyridine-3-carboxamide]	< 100 nM	100 to 300 nM	< 100 nM	> 300 nM
